Measurements published in the NIST ThermoML archive (doi:10.1021/je900596d).
Numbers after ± are expanded uncertainties.

Settings: for mass density: 283.24 K, Fluid (supercritical or subcritical phases), Vibrating tube method; for vapor or sublimation pressure: Liquid, Closed cell (Static) method

FC(F)=C(F)C(F)(F)F [hexafluoropropene]
Settings | mass density [kg/m3] | vapor or sublimation pressure [kPa]
114 kPa | 7.35 ± 0.03 | –
116.4 kPa | 7.51 ± 0.03 | –
118.8 kPa | 7.66 ± 0.03 | –
121.1 kPa | 7.8 ± 0.03 | –
123.6 kPa | 8.03 ± 0.03 | –
126.1 kPa | 8.11 ± 0.03 | –
128.5 kPa | 8.33 ± 0.04 | –
131 kPa | 8.54 ± 0.04 | –
133.4 kPa | 8.66 ± 0.04 | –
135.9 kPa | 8.94 ± 0.04 | –
140.7 kPa | 9.1 ± 0.04 | –
143.2 kPa | 9.36 ± 0.04 | –
145.7 kPa | 9.54 ± 0.04 | –
148.1 kPa | 9.69 ± 0.04 | –
150.6 kPa | 9.83 ± 0.04 | –
153 kPa | 9.99 ± 0.04 | –
155.6 kPa | 10.24 ± 0.04 | –
158.1 kPa | 10.37 ± 0.04 | –
160.5 kPa | 10.54 ± 0.04 | –
163 kPa | 10.74 ± 0.04 | –
165.1 kPa | 10.87 ± 0.04 | –
167.6 kPa | 11.05 ± 0.04 | –
170 kPa | 11.2 ± 0.04 | –
172.5 kPa | 11.37 ± 0.04 | –
176.6 kPa | 11.7 ± 0.04 | –
179.2 kPa | 11.83 ± 0.04 | –
181.6 kPa | 12.01 ± 0.04 | –
184.2 kPa | 12.12 ± 0.04 | –
186.6 kPa | 12.42 ± 0.04 | –
190.9 kPa | 12.6 ± 0.04 | –
193.4 kPa | 12.77 ± 0.04 | –
195.9 kPa | 13.03 ± 0.04 | –
198.4 kPa | 13.21 ± 0.04 | –
203.3 kPa | 13.55 ± 0.04 | –
205.8 kPa | 13.69 ± 0.04 | –
208.3 kPa | 13.93 ± 0.04 | –
210.8 kPa | 14.08 ± 0.04 | –
213.3 kPa | 14.3 ± 0.04 | –
215.8 kPa | 14.4 ± 0.04 | –
218.3 kPa | 14.66 ± 0.04 | –
220.8 kPa | 14.83 ± 0.04 | –
223.3 kPa | 14.99 ± 0.04 | –
225.7 kPa | 15.16 ± 0.04 | –
228.2 kPa | 15.32 ± 0.04 | –
230.7 kPa | 15.58 ± 0.04 | –
233.2 kPa | 15.69 ± 0.04 | –
235.7 kPa | 15.79 ± 0.04 | –
238.2 kPa | 16.04 ± 0.04 | –
240.7 kPa | 16.28 ± 0.04 | –
243.2 kPa | 16.38 ± 0.04 | –
245.6 kPa | 16.6 ± 0.04 | –
248.1 kPa | 16.83 ± 0.04 | –
250.7 kPa | 17.01 ± 0.04 | –
253.2 kPa | 17.15 ± 0.04 | –
255.6 kPa | 17.39 ± 0.04 | –
258.1 kPa | 17.58 ± 0.04 | –
260.5 kPa | 17.67 ± 0.04 | –
263 kPa | 17.89 ± 0.04 | –
265.5 kPa | 18.02 ± 0.04 | –
268 kPa | 18.31 ± 0.04 | –
270.4 kPa | 18.49 ± 0.04 | –
272.9 kPa | 18.6 ± 0.04 | –
275.4 kPa | 18.8 ± 0.04 | –
277.9 kPa | 19.01 ± 0.04 | –
280.5 kPa | 19.23 ± 0.04 | –
283.1 kPa | 19.39 ± 0.04 | –
286.3 kPa | 19.61 ± 0.04 | –
288.21 K | – | 537.1 ± 1.4
288.7 kPa | 19.79 ± 0.04 | –
291.2 kPa | 19.98 ± 0.04 | –
293.19 K | – | 625.9 ± 1.5
293.7 kPa | 20.2 ± 0.04 | –
296.1 kPa | 20.4 ± 0.04 | –
298.22 K | – | 728.3 ± 1.7
298.6 kPa | 20.56 ± 0.04 | –
305.2 kPa | 21.07 ± 0.04 | –
308.4 kPa | 21.36 ± 0.04 | –
311.6 kPa | 21.56 ± 0.04 | –
314.8 kPa | 21.85 ± 0.04 | –
318.2 kPa | 22.13 ± 0.04 | –
321.5 kPa | 22.28 ± 0.04 | –
324.6 kPa | 22.54 ± 0.04 | –
327.9 kPa | 22.87 ± 0.05 | –
331.2 kPa | 23.12 ± 0.05 | –
334.4 kPa | 23.37 ± 0.05 | –
340.9 kPa | 23.85 ± 0.05 | –
344.2 kPa | 24.11 ± 0.05 | –
347.4 kPa | 24.4 ± 0.05 | –
350.6 kPa | 24.64 ± 0.05 | –
353.9 kPa | 24.84 ± 0.05 | –
357.1 kPa | 25.07 ± 0.05 | –
360.3 kPa | 25.34 ± 0.05 | –
363.5 kPa | 25.56 ± 0.05 | –
366.7 kPa | 25.93 ± 0.05 | –
370 kPa | 26.15 ± 0.05 | –
373.1 kPa | 26.37 ± 0.05 | –
376.4 kPa | 26.74 ± 0.05 | –
379.5 kPa | 26.94 ± 0.05 | –
382.8 kPa | 27.24 ± 0.05 | –
385.9 kPa | 27.44 ± 0.05 | –
389.2 kPa | 27.66 ± 0.05 | –
392.3 kPa | 27.96 ± 0.05 | –
395.5 kPa | 28.23 ± 0.05 | –
398.7 kPa | 28.48 ± 0.05 | –
401.8 kPa | 28.77 ± 0.05 | –
405 kPa | 28.98 ± 0.05 | –
408.2 kPa | 29.26 ± 0.05 | –
411.4 kPa | 29.53 ± 0.05 | –
414.6 kPa | 29.77 ± 0.05 | –
417.7 kPa | 30.05 ± 0.05 | –
420.9 kPa | 30.37 ± 0.05 | –
424 kPa | 30.54 ± 0.05 | –
427.2 kPa | 30.81 ± 0.05 | –
430.3 kPa | 31.07 ± 0.05 | –
433.5 kPa | 31.39 ± 0.05 | –
436.6 kPa | 31.7 ± 0.06 | –
439.7 kPa | 31.9 ± 0.06 | –
442.9 kPa | 32.26 ± 0.06 | –
446 kPa | 32.45 ± 0.06 | –
449 kPa | 32.73 ± 0.06 | –
452.1 kPa | 32.99 ± 0.06 | –
454.4 kPa | 33.16 ± 0.06 | –
456.7 kPa | 33.3 ± 0.06 | –
460.5 kPa | 33.77 ± 0.06 | –
462.7 kPa | 33.86 ± 0.06 | –
463.5 kPa | 34.04 ± 0.06 | –
464.2 kPa | 34.05 ± 0.06 | –
465 kPa | 34.18 ± 0.06 | –
465.7 kPa | 34.33 ± 0.06 | –
466.4 kPa | 34.49 ± 0.06 | –
467.1 kPa | 34.74 ± 0.06 | –
467.7 kPa | 35.03 ± 0.06 | –
468.3 kPa | 35.5 ± 0.07 | –
468.9 kPa | 35.71 ± 0.07 | –
